Measured values taken from patent US9944645B2, “Imidazotriazines and imidazopyrimidines as kinase inhibitors” (Incyte Holdings Corporation, priority 2006, dated 2018).

The compounds below were run against c-Met kinase (h-Met; histidine-tagged c-Met catalytic domain fusion protein) (Homo sapiens (Human), UniProt P08581) (assay: In Vitro c-Met Kinase Enzyme Assays). Conditions: phosphorylation of poly Glu-Tyr, 5 μM ATP, 25 minutes at 30° C.
Assay type: biochemical
Procedure: Compounds were screened in vitro for their ability to inhibit c-Met kinase activity. […] Briefly, histidine-tagged c-Met catalytic domain fusion protein (Invitrogen, #PV3143) was used for the assay. […] The reaction lasted for 25 minutes at 30° C. After the reaction was completed, the contents of the plates was discarded. Plates were then washed with TBS-T (250 μL/well, 5×) and then blocked with TBS-T containing 1% BSA for 2 hours. The contents of the plates was discarded, and 100 μL (per well) of peroxidase-labeled anti-phospho-tyrosine antibody (Sigma, #A5964) diluted (1:60,000) in 1% BSA containing TBS-T were then added and incubated for 1 hour. Plates were washed with TBS-T ([…], 5×) and followed by the color reaction using 100 μL (1:1 mixture) of H2O2 and tetramethylbenzidine (R&D Systems, #DY999). The reaction was stopped in minutes with 100 μL of 2 N H2SO4. The optical density was measured immediately using a microplate reader at 450 nm with wavelength correction at 540 nm. IC50 values were calculated with the GraphPad Prism software. The linear range (i.e., the time period over which the rate remained equivalent to the initial rate) was determined for the kinase and IC50 determinations were performed within this range.

Sequence of c-Met kinase (h-Met; histidine-tagged c-Met catalytic domain fusion protein) (P08581 1078-1345): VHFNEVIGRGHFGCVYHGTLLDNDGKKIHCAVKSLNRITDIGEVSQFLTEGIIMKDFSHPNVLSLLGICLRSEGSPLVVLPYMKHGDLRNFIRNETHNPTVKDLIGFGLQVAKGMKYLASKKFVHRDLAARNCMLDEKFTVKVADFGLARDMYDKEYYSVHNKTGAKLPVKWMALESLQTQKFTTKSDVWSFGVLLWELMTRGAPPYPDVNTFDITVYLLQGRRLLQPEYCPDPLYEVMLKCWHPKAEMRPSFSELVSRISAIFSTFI

SMILES | IC50 [nM]
CN(C)C(=O)c1ccc(-c2cnc3ncc(C4(c5ccc6ncccc6c5)CC4)n3c2)cc1 [Example 30, N,N-Dimethyl-4-[3-(1-quinolin-6-ylcyclopropyl)imidazo[1,2-a]pyrimidin-6-yl]benzamide] | < 500
O=C(NCC1CCCO1)c1ccc(-c2cnc3ncc(C4(c5ccc6ncccc6c5)CC4)n3c2)cc1 (centres unmarked) [Example 31, 4-[3-(1-Quinolin-6-ylcyclopropyl)imidazo[1,2-a]pyrimidin-6-yl]-N-(tetrahydrofuran-2-ylmethyl)benzamide] | < 500
CN(C(=O)c1ccc(-c2cnc3ncc(C4(c5ccc6ncccc6c5)CC4)n3c2)cc1)C1CCN(Cc2ccccc2)C1 (centres unmarked) [Example 32, N-(1-Benzylpyrrolidin-3-yl)-N-methyl-4-[3-(1-quinolin-6-ylcyclopropyl)imidazo[1,2-a]pyrimidin-6-yl]benzamide] | < 500
O=C(NC1CCN(c2ccccn2)CC1)c1ccc(-c2cnc3ncc(C4(c5ccc6ncccc6c5)CC4)n3c2)cc1 [Example 33, N-(1-Pyridin-2-ylpiperidin-4-yl)-4-[3-(1-quinolin-6-ylcyclopropyl)imidazo[1,2-a]pyrimidin-6-yl]benzamide] | < 500
CC(NC(=O)c1ccc(-c2cnc3ncc(C4(c5ccc6ncccc6c5)CC4)n3c2)cc1)c1ccccn1 (centres unmarked) [Example 34, N-(1-Pyridin-2-ylethyl)-4-[3-(1-quinolin-6-ylcyclopropyl)imidazo[1,2-a]pyrimidin-6-yl]benzamide] | < 500
O=C(c1ccc(-c2cnc3ncc(C4(c5ccc6ncccc6c5)CC4)n3c2)cc1)N1CC[C@H](F)C1 [Example 35, 6-{1-[6-(4-[(3S)-3-Fluoropyrrolidin-1-yl]carbonylphenyl)imidazo[1,2-a]pyrimidin-3-yl]cyclopropyl}quinoline] | < 500
COCC1(NC(=O)c2ccc(-c3cnc4ncc(C5(c6ccc7ncccc7c6)CC5)n4c3)cc2)CCC1 [Example 36, N-[1-(Methoxymethyl)cyclobutyl]-4-[3-(1-quinolin-6-ylcyclopropyl)imidazo[1,2-a]pyrimidin-6-yl]benzamide] | < 500
O=C(NC1CCN(c2ccccn2)C1)c1ccc(-c2cnc3ncc(C4(c5ccc6ncccc6c5)CC4)n3c2)cc1 (centres unmarked) [Example 37, N-(1-Pyridin-2-ylpyrrolidin-3-yl)-4-[3-(1-quinolin-6-ylcyclopropyl)imidazo[1,2-a]pyrimidin-6-yl]benzamide] | < 500
O=C(c1ccc(-c2cnc3ncc(C4(c5ccc6ncccc6c5)CC4)n3c2)cc1)N1CCC(c2ccccn2)C1 (centres unmarked) [Example 38, 6-[1-(6-{4-[(3-Pyridin-2-ylpyrrolidin-1-yl)carbonyl]phenyl}imidazo[1,2-a]pyrimidin-3-yl)cyclopropyl]quinoline] | < 500
O=C(c1ccc(-c2cnc3ncc(C4(c5ccc6ncccc6c5)CC4)n3c2)cc1)N1CC[C@H](Oc2ccccn2)C1 [Example 39, 6-{1-[6-(4-[(3S)-3-(Pyridin-2-yloxy)pyrrolidin-1-yl]carbonylphenyl)imidazo[1,2-a]pyrimidin-3-yl]cyclopropyl}quinoline] | < 500
O=C(NCCOc1ccccn1)c1ccc(-c2cnc3ncc(C4(c5ccc6ncccc6c5)CC4)n3c2)cc1 [Example 40, N-[2-(Pyridin-2-yloxy)ethyl]-4-[3-(1-quinolin-6-ylcyclopropyl)imidazo[1,2-a]pyrimidin-6-yl]benzamide] | < 500
CC(COc1ccccn1)NC(=O)c1ccc(-c2cnc3ncc(C4(c5ccc6ncccc6c5)CC4)n3c2)cc1 (centres unmarked) [Example 41, N-[1-Methyl-2-(pyridin-2-yloxy)ethyl]-4-[3-(1-quinolin-6-ylcyclopropyl)imidazo[1,2-a]pyrimidin-6-yl]benzamide] | < 500
O=C(NCCOc1ccccc1)c1ccc(-c2cnc3ncc(C4(c5ccc6ncccc6c5)CC4)n3c2)cc1 [Example 42, N-(2-Phenoxyethyl)-4-[3-(1-quinolin-6-ylcyclopropyl)imidazo[1,2-a]pyrimidin-6-yl]benzamide] | < 500
CNC(=O)[C@@H](NC(=O)c1ccc(-c2cnc3ncc(C4(c5ccc6ncccc6c5)CC4)n3c2)cc1)C(C)(C)C [Example 43, N-(1S)-2,2-Dimethyl-1-[(methylamino)carbonyl]propyl-4-[3-(1-quinolin-6-ylcyclopropyl)imidazo[1,2-a]pyrimidin-6-yl]benzamide] | < 500
CN(C)C(=O)[C@@H](NC(=O)c1ccc(-c2cnc3ncc(C4(c5ccc6ncccc6c5)CC4)n3c2)cc1)C(C)(C)C [Example 44, N-(1S)-1-[(Dimethylamino)carbonyl]-2,2-dimethylpropyl-4-[3-(1-quinolin-6-ylcyclopropyl)imidazo[1,2-a]pyrimidin-6-yl]benzamide] | < 500
CC(C)(C)[C@H](NC(=O)c1ccc(-c2cnc3ncc(C4(c5ccc6ncccc6c5)CC4)n3c2)cc1)C(=O)N1CCC1 [Example 45, N-[(1S)-1-(Azetidin-1-ylcarbonyl)-2,2-dimethylpropyl]-4-[3-(1-quinolin-6-ylcyclopropyl)imidazo[1,2-a]pyrimidin-6-yl]benzamide] | < 500
O=C(NC1CC1)c1cccc(-c2cnc3ncc(C4(c5ccc6ncccc6c5)CC4)n3c2)c1 [Example 46, N-Cyclopropyl-3-[3-(1-quinolin-6-ylcyclopropyl)imidazo[1,2-a]pyrimidin-6-yl]benzamide] | < 500
O=C(NCc1ccccn1)c1cccc(-c2cnc3ncc(C4(c5ccc6ncccc6c5)CC4)n3c2)c1 [Example 47, N-(Pyridin-2-ylmethyl)-3-[3-(1-quinolin-6-ylcyclopropyl)imidazo[1,2-a]pyrimidin-6-yl]benzamide] | < 500
CN(C)C(=O)c1cccc(-c2cnc3ncc(C4(c5ccc6ncccc6c5)CC4)n3c2)c1 [Example 48, N,N-Dimethyl-3-[3-(1-quinolin-6-ylcyclopropyl)imidazo[1,2-a]pyrimidin-6-yl]benzamide] | < 500
CNC(=O)c1cccc(-c2cnc3ncc(C4(c5ccc6ncccc6c5)CC4)n3c2)c1 [Example 49, N-Methyl-3-[3-(1-quinolin-6-ylcyclopropyl)imidazo[1,2-a]pyrimidin-6-yl]benzamide] | < 500
CNC(=O)[C@H](C)NC(=O)c1ccc(-c2cnc3ncc(C4(c5ccc6ncccc6c5)CC4)n3c2)cc1 [Example 50, N-[(1S)-1-Methyl-2-(methylamino)-2-oxoethyl]-4-[3-(1-quinolin-6-ylcyclopropyl)imidazo[1,2-a]pyrimidin-6-yl]benzamide] | < 500
CNC(=O)[C@@H](C)NC(=O)c1ccc(-c2cnc3ncc(C4(c5ccc6ncccc6c5)CC4)n3c2)cc1 [Example 51, N-[(1R)-1-Methyl-2-(methylamino)-2-oxoethyl]-4-[3-(1-quinolin-6-ylcyclopropyl)imidazo[1,2-a]pyrimidin-6-yl]benzamide] | < 500
COC(=O)N1CCN(c2ccc(-c3cnc4ncc(C5(c6ccc7ncccc7c6)CC5)n4c3)cn2)CC1 [Example 53, Methyl 4-{5-[3-(1-quinolin-6-ylcyclopropyl)imidazo[1,2-a]pyrimidin-6-yl]pyridin-2-yl}piperazine-1-carboxylate] | < 500
CS(=O)(=O)N1CCN(c2ccc(-c3cnc4ncc(C5(c6ccc7ncccc7c6)CC5)n4c3)cn2)CC1 [Example 54, 6-[1-(6-{6-[4-(Methylsulfonyl)piperazin-1-yl]pyridin-3-yl}imidazo[1,2-a]pyrimidin-3-yl)cyclopropyl]quinoline] | < 500
CN(C)C(=O)N1CCN(c2ccc(-c3cnc4ncc(C5(c6ccc7ncccc7c6)CC5)n4c3)cn2)CC1 [Example 55, N,N-Dimethyl-4-{5-[3-(1-quinolin-6-ylcyclopropyl)imidazo[1,2-a]pyrimidin-6-yl]pyridin-2-yl}piperazine-1-carboxamide] | < 500
CC(C)[C@H](NC(=O)c1ccc(-c2cnc3ncc(C4(c5ccc6ncccc6c5)CC4)n3c2)cc1)C(=O)N(C)C [Example 56, N-(1S)-1-[(Dimethylamino)carbonyl]-2-methylpropyl-4-[3-(1-quinolin-6-ylcyclopropyl)imidazo[1,2-a]pyrimidin-6-yl]benzamide] | < 500
CN(C)C(=O)C1(NC(=O)c2ccc(-c3cnc4ncc(C5(c6ccc7ncccc7c6)CC5)n4c3)cc2)CCC1 [Example 57, N-1-[(Dimethylamino)carbonyl]cyclobutyl-4-[3-(1-quinolin-6-ylcyclopropyl)imidazo[1,2-a]pyrimidin-6-yl]benzamide] | < 500
CC(C)(C)[C@H](NC(=O)c1ccc(-c2cnc3ncc(C4(c5ccc6ncccc6c5)CC4)n3c2)cn1)C(=O)N1CCC1 [Example 58, N-[(1S)-1-(Azetidin-1-ylcarbonyl)-2,2-dimethylpropyl]-5-[3-(1-quinolin-6-ylcyclopropyl)imidazo[1,2-a]pyrimidin-6-yl]pyridine-2-carboxamide] | < 500
CNC(=O)[C@@H](NC(=O)c1ccc(-c2cnc3ncc(C4(c5ccc6ncccc6c5)CC4)n3c2)cn1)C(C)(C)C [Example 59, N-(1S)-2,2-Dimethyl-1-[(methylamino)carbonyl]propyl-5-[3-(1-quinolin-6-ylcyclopropyl)imidazo[1,2-a]pyrimidin-6-yl]pyridine-2-carboxamide] | < 500
